{"source": "patent US10800741B2", "about": "(ANCUREALL PHARMACEUTICAL (SHANGHAI) CO., LTD., priority 2017, dated 2020)", "biological_target": "T1, protein kinases (Homo sapiens, UniProt P00533, L858R)", "T1 construct": "purchased Discovery X company (USA), KINOMEscan screening platform", "T1 sequence (P00533 25-1210 L858R)": "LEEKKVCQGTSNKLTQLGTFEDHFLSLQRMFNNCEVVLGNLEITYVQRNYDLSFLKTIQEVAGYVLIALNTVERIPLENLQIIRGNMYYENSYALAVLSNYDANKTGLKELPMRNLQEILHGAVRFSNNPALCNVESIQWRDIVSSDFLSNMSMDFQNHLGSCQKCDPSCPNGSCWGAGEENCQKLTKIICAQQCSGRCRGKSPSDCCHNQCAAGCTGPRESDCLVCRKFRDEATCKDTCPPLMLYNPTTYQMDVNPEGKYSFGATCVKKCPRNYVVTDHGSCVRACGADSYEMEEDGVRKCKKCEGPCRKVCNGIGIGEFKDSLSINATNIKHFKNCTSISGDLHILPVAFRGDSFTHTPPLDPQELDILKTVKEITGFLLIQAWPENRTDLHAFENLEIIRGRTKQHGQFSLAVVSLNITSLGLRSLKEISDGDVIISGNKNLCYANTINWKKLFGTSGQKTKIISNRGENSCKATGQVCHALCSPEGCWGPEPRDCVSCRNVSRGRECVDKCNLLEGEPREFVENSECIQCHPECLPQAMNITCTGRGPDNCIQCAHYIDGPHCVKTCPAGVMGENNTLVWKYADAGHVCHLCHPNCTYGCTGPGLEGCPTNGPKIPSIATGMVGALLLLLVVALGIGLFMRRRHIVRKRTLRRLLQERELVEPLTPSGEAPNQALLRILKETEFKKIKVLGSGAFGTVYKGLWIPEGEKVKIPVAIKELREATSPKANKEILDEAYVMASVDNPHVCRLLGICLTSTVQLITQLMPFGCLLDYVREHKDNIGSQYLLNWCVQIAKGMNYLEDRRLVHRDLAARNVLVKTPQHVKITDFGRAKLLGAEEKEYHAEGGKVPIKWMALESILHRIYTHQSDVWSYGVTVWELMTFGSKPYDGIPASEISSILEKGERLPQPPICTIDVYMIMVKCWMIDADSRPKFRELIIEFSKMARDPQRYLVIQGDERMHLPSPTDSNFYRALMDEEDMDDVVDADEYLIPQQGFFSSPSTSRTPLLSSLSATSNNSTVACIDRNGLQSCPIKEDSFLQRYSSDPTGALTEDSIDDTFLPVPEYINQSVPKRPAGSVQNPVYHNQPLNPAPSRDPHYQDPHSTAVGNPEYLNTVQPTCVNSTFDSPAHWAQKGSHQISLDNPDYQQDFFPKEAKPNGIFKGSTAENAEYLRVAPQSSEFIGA", "experiment": "KINOMEscan in vitro binding to 468 labeled protein kinases", "settings": "EGFR(L858R)", "outline": "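Duplicate in vitro binding reactions at 1 nM, 10 nM and 1000 nM compound against a panel of 468 labelled protein kinases (KINOMEscan). Binding expressed relative to solvent control as a percentage, stronger affinity giving a lower value.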"}
{"molecule": "COCCOc1cc2nccc(Oc3ccc(NC(=O)Nc4cc(C(C)(C)C)n[nH]4)c(Cl)c3)c2cc1NC(C)=O", "note": "[Compound 66, N-[4-{4-[3-(5-tert-butyl-2H-pyrazol-3-yl)-ureido]-3-chloro-phenoxy}-7-(2-methoxy-ethoxy)-quinolin-6-yl]-acetamide]", "values": [{"measurement": "Test compound/solvent control (%)", "setting": "1 nM", "result": 87, "unit": "%"}, {"measurement": "Test compound/solvent control (%)", "setting": "10 nM", "result": 28, "unit": "%"}, {"measurement": "Test compound/solvent control (%)", "setting": "1000 nM", "result": 0, "unit": "%"}]}
